Source: ChEMBL document CHEMBL1201862, “PubChem BioAssay data set” (2004)
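Each compound was tested at five concentrations against cells in 96-well plates for 48 hours. GI50 = concentration required for 50% inhibition of growth.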 The source made the active and inactive calls. Cut-off read from the data, not from the text of the source: active = GI50 up to about 1.1 µM and inactive = higher.

Assays:
Experiment in all cases: NCI anticancer screen, dose series, 48 h
ACHN = test system: ACHN
NCI-H522 = test system: NCI-H522
Hs-578T = test system: Hs-578T
TK-10 = test system: TK-10
CCRF-CEM = test system: CCRF-CEM
U-251 = test system: U-251
Malme-3M = test system: Malme-3M
RPMI-8226 = test system: RPMI-8226
NCI/ADR-RES = test system: NCI/ADR-RES
COLO 205 = test system: COLO 205
A498 = test system: A498
OVCAR-3 = test system: OVCAR-3
SNB-19 = test system: SNB-19
HOP-62 = test system: HOP-62
UACC-257 = test system: UACC-257
UO-31 = test system: UO-31
SF-268 = test system: SF-268
OVCAR-5 = test system: OVCAR-5
MCF7 = test system: MCF7
HT-29 = test system: HT-29

Measured: GI50

S=C(/N=C1/NCC(CN2CCN(c3ccccc3)CC2)O1)Nc1ccccc1 (stereo unspecified)
inactive: ACHN > 100 µM | NCI-H522 > 100 µM | Hs-578T > 100 µM | TK-10 > 100 µM | CCRF-CEM 30.5 µM | U-251 55.3 µM | Malme-3M > 100 µM | RPMI-8226 42.3 µM | NCI/ADR-RES > 100 µM | COLO 205 28.6 µM | A498 > 100 µM | OVCAR-3 52.2 µM | SNB-19 > 100 µM | HOP-62 77.3 µM | UACC-257 > 100 µM | UO-31 11.6 µM | SF-268 > 100 µM | OVCAR-5 > 100 µM | MCF7 38.4 µM | HT-29 42.2 µM

Fc1cccc(Cl)c1/C=N\N=C1c2ccccc2-c2ccccc21
inactive: ACHN 95.3 µM | NCI-H522 > 100 µM | Hs-578T 34.3 µM | TK-10 > 100 µM | CCRF-CEM > 100 µM | U-251 78.9 µM | Malme-3M 76.7 µM | RPMI-8226 33.9 µM | NCI/ADR-RES > 100 µM | COLO 205 > 100 µM | A498 > 100 µM | OVCAR-3 69.2 µM | SNB-19 98.9 µM | HOP-62 65.6 µM | UACC-257 > 100 µM | UO-31 > 100 µM | SF-268 > 100 µM | OVCAR-5 > 100 µM | MCF7 11.8 µM | HT-29 58.9 µM

COc1cccc(Nc2nc(C)c([N+](=O)[O-])c(Nc3cccc(OC)c3)n2)c1
inactive: ACHN 19.4 µM | NCI-H522 8.18 µM | Hs-578T 50.1 µM | TK-10 16.8 µM | U-251 49.1 µM | Malme-3M 53.1 µM | RPMI-8226 5.06 µM | NCI/ADR-RES 2.92 µM | COLO 205 13.9 µM | A498 9.35 µM | OVCAR-3 12.9 µM | SNB-19 89.1 µM | HOP-62 12.1 µM | UACC-257 9.57 µM | UO-31 9.27 µM | SF-268 40.4 µM | OVCAR-5 > 100 µM | MCF7 2.24 µM | HT-29 12.6 µM

COC(=O)c1ccccc1Nc1nc(-c2cccs2)nc2cc(OC)c(OC)cc12
inactive: ACHN 47.8 µM | NCI-H522 59.7 µM | Hs-578T 30.3 µM | TK-10 28.3 µM | U-251 31.2 µM | Malme-3M 61 µM | RPMI-8226 49.8 µM | NCI/ADR-RES 57 µM | COLO 205 45.4 µM | A498 > 100 µM | OVCAR-3 40.2 µM | SNB-19 33.1 µM | HOP-62 18.3 µM | UACC-257 70.8 µM | UO-31 > 100 µM | SF-268 46.3 µM | OVCAR-5 36.2 µM | MCF7 72.3 µM | HT-29 > 100 µM

O=[N+]([O-])C(=C(Nc1cccc2cccnc12)Nc1cccc2cccnc12)C(Cl)=C(Cl)Cl
inactive: ACHN 22 µM | NCI-H522 17.3 µM | Hs-578T > 21.7 µM | TK-10 > 100 µM | CCRF-CEM 34 µM | U-251 55.1 µM | Malme-3M > 92.3 µM | RPMI-8226 23.6 µM | NCI/ADR-RES 28.8 µM | COLO 205 31 µM | A498 > 100 µM | OVCAR-3 27.3 µM | SNB-19 > 96.2 µM | HOP-62 > 100 µM | UO-31 > 100 µM | SF-268 42.9 µM | OVCAR-5 > 100 µM | MCF7 13.5 µM | HT-29 > 39 µM

CS(=O)(=O)N(CC(=O)O)Cc1ccccc1
inactive: ACHN > 100 µM | NCI-H522 > 100 µM | Hs-578T > 100 µM | TK-10 > 100 µM | CCRF-CEM > 100 µM | U-251 > 100 µM | Malme-3M > 100 µM | RPMI-8226 > 100 µM | NCI/ADR-RES > 100 µM | COLO 205 > 100 µM | A498 > 100 µM | OVCAR-3 > 100 µM | SNB-19 > 100 µM | HOP-62 > 100 µM | UACC-257 > 100 µM | SF-268 > 100 µM | OVCAR-5 > 100 µM | MCF7 > 100 µM | HT-29 > 100 µM
